Results: patent US7419780B2, “Methods and assays for screening protein targets” (The Trustees of Columbia University in the City of New York, priority 2000, dated 2008)

How the values were obtained:
Format in all cases: cell-based, S. cerevisiae
Settings in all cases: 1 uM small molecule, difference to activity without small molecule, average of two trials
[1] = target: T1, LexA (GSG)2mDHFR / B42 (GSG)rGR2 (UniProt P00375+P06536, C656G/F620S); experiment: β-galactosidase activity assay, strain V504Y
T1 construct: rat Glucocorticoid Receptor (aa 524-795) with point mutations; expressed in transfected cells; host or cells: S. cerevisiae FY250
T1 sequence (P00375 1-187): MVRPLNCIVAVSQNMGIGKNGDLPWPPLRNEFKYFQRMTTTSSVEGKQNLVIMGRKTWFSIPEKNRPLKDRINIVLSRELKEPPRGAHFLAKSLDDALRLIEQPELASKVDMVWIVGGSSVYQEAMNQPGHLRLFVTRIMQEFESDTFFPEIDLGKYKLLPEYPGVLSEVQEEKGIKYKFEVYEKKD
T1 sequence (P06536 524-795 F620S/C656G limits assumed): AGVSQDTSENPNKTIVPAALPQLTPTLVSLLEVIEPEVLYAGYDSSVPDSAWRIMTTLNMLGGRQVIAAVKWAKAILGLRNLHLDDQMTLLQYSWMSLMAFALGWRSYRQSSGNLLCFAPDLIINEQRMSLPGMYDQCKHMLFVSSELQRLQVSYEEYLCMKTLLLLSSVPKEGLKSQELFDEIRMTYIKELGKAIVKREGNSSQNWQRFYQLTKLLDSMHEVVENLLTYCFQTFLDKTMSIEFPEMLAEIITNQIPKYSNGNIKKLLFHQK
From the text: (§1) Table III explains the components of each strain. Each strain was constructed from the parent yeast strain FY250 and also contains the pMW106 plasmid, which has the LacZ reporter gene that is turned on only in when the LexA DNA binding domain and the B42 activation are brought in tot he vicinity of each other. We use several different strains because we use DHFR from two different species, mDHFR is from murine, while eDHFR is from E. coli. We are asl oable to switch the small moleculebinding domains. For example, the strain containing LexA-eDHFR with B42-rGH2 is a different strain and behaves differently from the strain containing LexA-rGR2 with B42-eDHFR. We also put in short 6 amino acid linkers between the two domains of our protein chimeras and thus these are different strain as well.
(§2) The results in Table IV are averages of two separate trials. Each strain was examined with small molecules and without small molecules. The absolute activity is given as the β-galactisidase activity […]. The average β-galactosidse activity for a strain without small molecule (i.e. the negative control) was about 100 β-galactosidase units.

[2] = target: T2, LexA (GSG)2rGR2 / B42 eDHFR (UniProt P06536+P0ABQ4, C656G/F620S); experiment: β-galactosidase activity assay, strain V506Y
T2 construct: expressed in transfected cells; host or cells: S. cerevisiae FY250 with pMW106 lacZ reporter
T2 sequence (P06536 524-795 F620S/C656G limits assumed): T1 sequence (P06536 524-795 F620S/C656G limits assumed)
T2 sequence (P0ABQ4 1-159): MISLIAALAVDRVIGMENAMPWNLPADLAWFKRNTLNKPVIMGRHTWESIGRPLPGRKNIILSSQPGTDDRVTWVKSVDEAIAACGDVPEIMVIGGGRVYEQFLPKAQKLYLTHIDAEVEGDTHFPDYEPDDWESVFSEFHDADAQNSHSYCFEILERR
From the text: as §1, §2

[3] = target: T3, LexA (GSG)2mDHFR / B42 gly6rGR2 (UniProt P00375+P06536, C656G/F620S); experiment: β-galactosidase activity assay, strain V503Y
T3 construct: expressed in transfected cells; host or cells: S. cerevisiae FY250 with pMW106 lacZ reporter
T3 sequence (P00375 1-187): T1 sequence (P00375 1-187)
T3 sequence (P06536 524-795 F620S/C656G limits assumed): T1 sequence (P06536 524-795 F620S/C656G limits assumed)
From the text: as §1, §2

[4] = target: T4, LexA (GSG)2eDHFR / B42 (GSG)rGR2 (UniProt P06536+P0ABQ4, C656G/F620S); experiment: β-galactosidase activity assay, strain V501Y
T4 construct: rat Glucocorticoid Receptor (aa 524-795) with point mutations; expressed in transfected cells; host or cells: S. cerevisiae FY250
T4 sequence (P0ABQ4 1-159): T2 sequence (P0ABQ4 1-159)
T4 sequence (P06536 524-795 F620S/C656G limits assumed): T1 sequence (P06536 524-795 F620S/C656G limits assumed)
From the text: as §1, §2

LexA rGR2 / B42 eDHFR = target: T5, LexA rGR2 / B42 eDHFR (UniProt P06536+P0ABQ4, C656G/F620S); experiment: β-galactosidase activity assay, strain V505Y
T5 construct: rat Glucocorticoid Receptor (aa 524-795) with point mutations; expressed in transfected cells; host or cells: S. cerevisiae FY250
T5 sequence (P06536 524-795 F620S/C656G limits assumed): T1 sequence (P06536 524-795 F620S/C656G limits assumed)
T5 sequence (P0ABQ4 1-159): T2 sequence (P0ABQ4 1-159)
From the text: as §1, §2

[5] = target: T6, LexA rGR2 / B42 (GSG)2mDHFR (UniProt P00375+P06536, C656G/F620S); experiment: β-galactosidase activity assay, strain V511Y
T6 construct: expressed in transfected cells; host or cells: S. cerevisiae FY250 with pMW106 lacZ reporter
T6 sequence (P06536 524-795 F620S/C656G limits assumed): T1 sequence (P06536 524-795 F620S/C656G limits assumed)
T6 sequence (P00375 1-187): T1 sequence (P00375 1-187)
From the text: as §1, §2

[6] = target: T7, LexA (GSG)2rGR2 / B42 mDHFR (UniProt P00375+P06536, C656G/F620S); experiment: β-galactosidase activity assay, strain V508Y
T7 construct: expressed in transfected cells; host or cells: S. cerevisiae FY250 with pMW106 lacZ reporter
T7 sequence (P06536 524-795 F620S/C656G limits assumed): T1 sequence (P06536 524-795 F620S/C656G limits assumed)
T7 sequence (P00375 1-187): T1 sequence (P00375 1-187)
From the text: as §1, §2

[7] = target: T8, LexA (GSG)2mDHFR / B42 rGR2 (UniProt P00375+P06536, C656G/F620S); experiment: β-galactosidase activity assay, strain V502Y
T8 construct: rat Glucocorticoid Receptor (aa 524-795) with point mutations; expressed in transfected cells; host or cells: S. cerevisiae FY250
T8 sequence (P00375 1-187): T1 sequence (P00375 1-187)
T8 sequence (P06536 524-795 F620S/C656G limits assumed): T1 sequence (P06536 524-795 F620S/C656G limits assumed)
From the text: as §1, §2

LexA rGR2 / B42 mDHFR = target: T9, LexA rGR2 / B42 mDHFR (UniProt P00375+P06536, C656G/F620S); experiment: β-galactosidase activity assay, strain V507Y
T9 construct: rat Glucocorticoid Receptor (aa 524-795) with point mutations; expressed in transfected cells; host or cells: S. cerevisiae FY250
T9 sequence (P06536 524-795 F620S/C656G limits assumed): T1 sequence (P06536 524-795 F620S/C656G limits assumed)
T9 sequence (P00375 1-187): T1 sequence (P00375 1-187)
From the text: as §1, §2

[8] = target: T10, LexA eDHFR / B42 gly6rGR2 (UniProt P06536+P0ABQ4, C656G/F620S); experiment: β-galactosidase activity assay, strain V375Y
T10 construct: rat Glucocorticoid Receptor (aa 524-795) with point mutations; expressed in transfected cells; host or cells: S. cerevisiae FY250
T10 sequence (P0ABQ4 1-159): T2 sequence (P0ABQ4 1-159)
T10 sequence (P06536 524-795 F620S/C656G limits assumed): T1 sequence (P06536 524-795 F620S/C656G limits assumed)
From the text: as §1, §2

C[C@@H]1C[C@H]2C3CCC4=CC(=O)C=C[C@]4(C)[C@@]3(F)[C@@H](O)C[C@]2(C)[C@@]1(O)C(=O)NCCSCCCCCCCCCCSCC[C@H](NC(=O)c1ccc(N(C)Cc2cnc3nc(N)nc(N)c3n2)cc1)C(=O)O (stereo partly shown) [D10M]
B-gal activity [1]: 556 β-galactosidase units
B-gal activity [2]: 2561 β-galactosidase units
B-gal activity [3]: 1132 β-galactosidase units
B-gal activity [4]: 2286 β-galactosidase units
B-gal activity (LexA rGR2 / B42 eDHFR): 1160 β-galactosidase units
B-gal activity [5]: −60 β-galactosidase units
B-gal activity [6]: 5 β-galactosidase units
B-gal activity [7]: 497 β-galactosidase units
B-gal activity (LexA rGR2 / B42 mDHFR): −14 β-galactosidase units
B-gal activity [8]: 9993 β-galactosidase units
